Key:
[1] = tested on: exosomes from human serum; experiment: miRNA profiling of human serum-derived exosomes, patients with CRPS vs control subjects (TLDA cards)
Experimental: Exosome purification from cell culture media was performed as described (McDonald et al., 2013, J Visualized Exp 2013(76):e50294). Centrifugation was used to remove cell debris (500×g for 10 min); the supernatant was transferred and centrifuged (16,500×g for 20 min) Cell-free supernatants were filtered (0.22 μm; VWR, Radnor, Pa.) and exosomes were pelleted by ultracentrifugation (120,000×g for 70 min) The exosomal pellet was resuspended in buffer specific to downstream experiments and vortexed 2×15 seconds. For RNA purification, RNase inhibitors were added after the first centrifugation step at 1 U/ml (RNAsin Plus; Promega, Madison, Wis.) and at all subsequent steps at 1 U/μl. […]
TLDA microfluidic cards (Life Technologies) were used for miRNA profiling as previously described. […] For miRNAs profiled from exosomes collected from RAW 264.7 cells, significance was determined by applying a P value cutoff of 0.05 to the results of a paired-samples t test. For human exosomal miRNAs, significance was determined by applying the Benjamini-Hochberg false discovery rate correction to the results of a 2-tailed t test.
To determine whether exosomal miRNAs reflect the miRNA signature in whole blood of patients with CRPS, miRNAs in exosomes purified from the serum of 6 patients with CRPS and 6 healthy controls we analyzed (FIG. 38).

RAW 264.7 cells = experiment: Exosomal RNA sequencing (NGS) of naive and LPS-stimulated RAW 264.7 cells; type: cell-based, mouse; conditions: exosomal transcript level after LPS stimulation of RAW 264.7 cells compared with exosomes from naive cells
Experimental: RAW 264.7 cells (ATCC) and RAW-Blue cells (Invivogen) were maintained in complete culture media (1×DMEM, 10% heat inactivated FBS). For exosome collection, RAW 264.7 cells (1×10^7) were plated in 150 mm dishes with complete culture media. At 24 hr, media was replaced with exosome-depleted media (1×DMEM, 10% heat-inactivated FBS depleted of exosomes by ultracentrifugation) with or without 1 μg/ml LPS (Sigma)) and incubated overnight. Media was collected in 50 ml tubes at 24 hr for exosome purification. Human THP1 macrophages were used in some experiments.
Exosome purification from cell culture media was performed as described (McDonald et al., 2013, J Visualized Exp 2013(76):e50294). […]
The SOLiD whole transcriptome analysis kit protocol with the fragmentation step omitted was used to generate a cDNA library for each sample. […] RNA concentration was measured using Nanodrop 1000 (NanoDrop Technologies, Wilmington, Del.). Total RNA from 3 independent exosome purifications was pooled to obtain 4 μg exosomal RNA per library (due to a limited amount of RNA in individual preparations), analyzed for integrity using the Agilent RNA 6000 Pico Kit (RNA integrity number between 1.6 and 2.1), and gel purified. […]

[2] = tested on: miRNAs in blood of CRPS patients; conditions: blood of responders, after vs before ketamine treatment
Experimental: The experiments described herein were conducted in order to determine the utility of miRNAs as biomarkers for CRPS in both the effectiveness of a treatment and the severity and progression of individual cases. As presented herein, the changes in levels of 758 miRNAs were examined in blood of 19 CRPS patients before and after ketamine treatment, using Taqman low-density array cards.
Ketamine Treatment Ketamine treatment was given to the subjects by sub-anesthetic continuous intravenous administration. Infusion started at a rate of 10 mg/hr and increased in steps of 10 mg/hr at every 2 hours to a maximum of 40 mg/hr (see FIG. 4). Blood samples were collected from CRPS patients before and after ketamine treatment. miRNA Analysis
Total RNA was isolated from blood samples using mirVana kit (Applied Biosystems) and cDNA synthesis was performed. Levels of 758 miRNAs were analyzed by using a Taqman low-density array (TLDA) card.
A positive fold change indicates a higher expression of the miRNA in responders, while a negative fold change indicates a lower expression of the miRNA in responders.

MCP-1, IFNγ and IL-1β = experiment: Inflammatory markers in CRPS patients following ketamine treatment; type: in vivo, human; conditions: p<0.05
From the text: Additional analysis comparing miRNA profiles from responders, non-responders and 20 control subjects enabled identification of additional miRNAs.

CYP3A4 = CYP3A4 (Homo sapiens, UniProt P08684); conditions: known route of elimination; cited from earlier work
β-endorphin = β-endorphin levels in plasma of CRPS patients before and after ketamine therapy; type: in vivo, human; conditions: after vs before ketamine therapy
Experimental: FIG. 8 is a graph showing no significant difference in the basal (pre-treatment) plasma levels of β-endorphin between patients and healthy controls. […] Shown are β-endorphin levels in the plasma from CRPS patients (responders and non-responders to ketamine therapy) before treatment and healthy controls and in CRPS patients before and after ketamine therapy. Responders; n=11, non-responders; n=6 and control; n=5. Results represent mean±SEM. The statistical significance was calculated using one-way ANOVA*: p<0.05 relative to non-responders after treatment.
Analgesic pathway targets were selected for validation. Cross talk between analgesic and endocrinal systems is known (FIG. 6). Pro-opiomelanocortin (POMC) is a polypetide precursor of many peptide hormones in the hypothalamopitiutary axis, including Adrenocorticotrophic hormone (ACTH), Melanocyte stimulating hormone (MSH), and Beta-endorphin. Prohormone convertase cleaves POMC yielding important hormonal peptides ACTH, MSH, […] and β-endorphin. β-endorphin is an important member of the endogenous opioid system. Its release is important in modulation of mood, pain, inflammatory responses. Several studies have linked the expression of POMC and its daughter peptide β-endorphin to placebo effect. Non-Responders to ketamine therapy had increased expression of POMC mRNA in blood relative to the responders and healthy controls (FIG. 7). […]

[3] = negative = lower expression following treatment

CYP3A4, sequence (P08684 whole entry): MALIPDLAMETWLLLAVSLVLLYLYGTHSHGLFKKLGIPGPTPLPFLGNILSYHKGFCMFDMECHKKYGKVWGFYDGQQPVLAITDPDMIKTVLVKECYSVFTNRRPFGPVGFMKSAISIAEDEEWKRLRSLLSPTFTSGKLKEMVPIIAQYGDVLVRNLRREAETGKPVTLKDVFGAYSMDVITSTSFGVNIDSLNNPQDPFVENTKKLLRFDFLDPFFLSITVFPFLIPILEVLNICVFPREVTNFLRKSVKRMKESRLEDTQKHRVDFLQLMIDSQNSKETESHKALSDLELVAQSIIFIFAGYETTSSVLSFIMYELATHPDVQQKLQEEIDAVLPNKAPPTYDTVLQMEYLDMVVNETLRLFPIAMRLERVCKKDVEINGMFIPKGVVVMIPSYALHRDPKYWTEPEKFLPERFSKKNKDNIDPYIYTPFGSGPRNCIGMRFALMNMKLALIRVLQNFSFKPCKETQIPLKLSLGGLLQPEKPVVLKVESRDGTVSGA

“RNU48 (GAUGACCCCAGGUAACUCUGAGUGUGUCGCUGAUGCCAUCACCGCAGCGCUCUGACC; chemistry not fully specified; listed as Homo sapiens)” showed a ddct [1] of 2.147 and a fold-change [1] of −4.429.

With Gdf11 the PS/cpntrol ratio (RAW 264.7 cells) was 4.82.

In the case of `CNC1(c2ccccc2Cl)CCCCC1=O` (stereo not drawn) [ketamine], the “Fold change RNU44.A” value [2, 3] is reported as −1.80, the “Fold change hsa-miR-337-3p” value [2, 3] is reported as −18.20 and the “Fold change hsa-miR-597” value [2, 3] is reported as −16.23. For the same molecule, the “Fold change hsa-miR-605” value [2, 3] was −36.08, the “Fold change hsa-miR-650” value ([2]; positive = higher expression following treatment) was 8.01 and the IFNγ level (MCP-1, IFNγ and IL-1β) was “decreased significantly”. The IL-1β level (MCP-1, IFNγ and IL-1β) was “decreased significantly”, the MCP-1 level (MCP-1, IFNγ and IL-1β) was “decreased significantly” and the Metabolism (CYP3A4) was “demethylated mostly by CYP3A4 followed by conjugation with glucuronic acid”. The β-endorphin plasma level (β-endorphin; non-responders) was “but not the non-responders” and the β-endorphin plasma level (β-endorphin; responders) was “induced an increase in β-endorphin”.

Pgcp gave a PS/cpntrol ratio (RAW 264.7 cells) of 2.94.

Reference: US20160076098A1, “METHODS OF DIAGNOSING AND TREATING CHRONIC PAIN” (priority 2013, published 2016)
